The source of these data is US8697387B2, “Methods for identifying agents and their use for the prevention of restenosis” (DiscoverRx Corporation, priority 2006, dated 2014).

Data set [1] deals with BioMAP Systems cells (SRB total protein, PBMC viability, cell morphology). Nature of the data set: Toxicity assessments in BioMAP Systems (SRB, PI, visual). On the procedure: Adverse effects of compounds on cells were determined by (1) measuring alterations in total protein (Sulforodhamine B or SRB assay); (2) measuring the viability of peripheral blood mononuclear cells (incorporation of propidium iodide, PI); and (3) microscopic visualization. SRB was performed by staining cells with 0.1% sulforhodamine B after fixation with 10% TCA, and reading wells at 560 nm. PBMC viability was assessed by adding propidium iodide (10 microgram/ml) to PBMC that had been cultured for 24 hours in the presence of activators and measuring the percentage of cells that incorporated dye by flow cytometry after 10 minutes. Samples were assessed visually according to the following scheme: 2.0=cobblestone (unactivated phenotype); 1.0=activated (normal phenotype); 0.5=lacy or sparse; 0.375=rounded; 0.25=sparse and granular; 0.1=no cells in well.
Cellular toxicity in BioMAP Systems is indicated if the SRB parameter (sulforhodamine B, measure of total protein loss) is <−0.3, the PI parameter (propidium iodine, measure of lymphotoxicity) is <−0.1, and the Visual parameter (change in cell morphology) is <−0.6.

Data set [2] deals with BioMAP Systems (human primary cell-based assay systems: endothelial cells, smooth muscle cells, PBMC, fibroblasts). Nature of the data set: BioMAP Systems screen scored for desired anti-restenosis parameter modulation. As to conditions: for Total score for desired parameter modulation, Score (out of 45): 1 point per desired activity present across BioMAP systems of Table 2, paclitaxel average of 11 runs, rapamycin average of 13 runs. An excerpt: The BioMAP Systems that model the relevant biological processes (smooth muscle cell hyperplasia, tissue remodeling, inflammation etc, including the measurements of readout parameters listed in Table 1), and are used for screening are listed in Table 2. Each of the cells listed in Table 1 can be utilized in one or more of the systems described below. For example, smooth muscle cells are used in CASM3C; CASMNo; SM3C and SMNo systems. Such BioMap systems are generally primary human cell based assays. Compounds are screened in one or more such BioMap systems, usually in at least about two such systems, and may be screened in at least three, at least four, at least five, at least ten, and up to all of the assays set forth in Table 2.
These assays are scored according to their modulation of the selected readout parameters.
Human umbilical vein endothelial cells (HUVEC) were pooled from multiple donors, cultured according to standard methods, and plated into microtiter plates at passage 4. Human neonatal foreskin fibroblasts (HDF) from 3 donors were pooled and cultured according to standard methods. 24 hr before stimulation with cytokines, confluent HDF in microtitre plates were serum starved. Coronary artery endothelial cells (CAEC), coronary artery smooth muscle cells (CASMC) and umbilical artery smooth muscle cells (SMC) cultured according to standard methods. Peripheral blood mononuclear cells (PBMC) were prepared from buffy coats from normal human donors according to standard methods. Concentrations/amounts of agents added to confluent microtitre plates to build each system were as follows: cytokines (IL-1 beta, 1 ng/ml; TNF-alpha, 5 ng/ml; IFN-gamma, 20 ng/ml; TGF-beta, 5 ng/ml; IL-4, 5 ng/ml), activators (histamine, 10 microM; SAg, 20 ng/ml or LPS, 0.2 ng/ml), PBMC (7.5×10^4 cells/well).
Compounds were prepared in the solvent as directed, added 1 hr before stimulation of the cells, and were present during the 24 hr stimulation period for the measurement of parameters listed in Table 2. For proliferation, compounds added 1 hr before stimulation of the cells with cytokines, and were present during the 96 hr. If prepared in DMSO, the final concentration of solvent was 0.1% or less.
The levels of readout parameters were measured by ELISA. Briefly, microtiter plates are treated, blocked, and then incubated with primary antibodies or isotype control antibodies (0.01-0.5 microg/ml) for 1 hr. After washing, plates were incubated with a peroxidase-conjugated anti-mouse IgG secondary antibody or a biotin-conjugated anti-mouse IgG antibody for 1 hr followed by streptavidin-HRP for 30 min. Plates were washed and developed with TMB substrate and the absorbance (OD) was read at 450 nm (subtracting the background absorbance at 650 nm). Quantitation of TNF-alpha in the LPS system was done using a commercially available kit according to the manufacturer's directions. Proliferation of endothelial cells (HUVEC and CAEC), smooth muscle cels (SMC and CASMC), and PBMC (T cells) was quantitated by Alamar blue or SRB reduction.
Mean OD values for each parameter were calculated from triplicate samples per experiment. The mean value obtained for each parameter in a treated sample was then divided by the mean value from an appropriate control to generate a ratio. All ratios were then log10 transformed. 99% prediction envelopes (grey shading in Figures) were calculated for historical controls.

Data set [3] relates to smooth muscle cell proliferation relative to endothelial cell proliferation. The experiment in a line: Proliferation of smooth muscle cells relative to endothelial cells in BioMAP systems 3C, SM3C, CANo, CASMNO, CA3C, CASM3C. The data set is classed as cell-based, human. As to conditions: all conditions, all doses tested, independent of source of primary cells. An excerpt:
One can further refine the selection of drugs for the treatment of restenosis by measuring their relative effects at multiple doses on proliferation of smooth muscle cells and endothelial cells derived from different sources (umbilical cord or coronary artery), and under different growth conditions (proliferation driven by growth factors only, or in the presence of pro-inflammatory factors that are normally found at the restenotic site). Statistical analysis of cell proliferation in BioMAP systems 3C, SM3C, CANo, CASMNO, CA3C, and CASM3C listed in Table 1 was performed for candidate drugs 8-Azaguanine, Amodiaquin Dihydrochloride Dihydrate, Atovaquone, Ciclopirox, Cis-(Z)-Flupentixol Dihydrochloride, Clofilium Tosylate, Monobenzone, Primaquine Diphosphate, Securinine, Syrosingopine, Terconazole, and Trimethylcolchicinic Acid. […]
The levels of readout parameters were measured by ELISA. […] Plates were washed and developed with TMB substrate and the absorbance (OD) was read at 450 nm (subtracting the background absorbance at 650 nm). Quantitation of TNF-alpha in the LPS system was done using a commercially available kit according to the manufacturer's directions. Proliferation of endothelial cells (HUVEC and CAEC), smooth muscle cels (SMC and CASMC), and PBMC (T cells) was quantitated by Alamar blue or SRB reduction. […]

Data set [4] concerns neointimal hyperplasia after balloon vascular injury. The following applies: rat; reported by Pan et al., 2003; cited from earlier work.

Structures can show the parent of a compound that is named as a salt. *1 amine or outer side, *2 acyl side, *3 side chain or, on linkers, in order; H or OH if unused. Where a SMILES comes first, the peptide text is derived from it. Bridges are numbered along the chain shown (N, C = ends). Roman numbers before positions name the chains, in order. [ ]: non-standard residue; d: D form. Actinocin(9to1) = Cc1c2oc3c(C)ccc(C(=O)[*:1])c3nc-2c(C(=O)[*:2])c(N)c1=O; NMeV = CN[C@H](C(=O)O)C(C)C; Sar = CNCC(=O)O

As to `C[C@@H]1C[C@H]2[C@@H]3CCC4=CC(=O)C=C[C@]4(C)[C@@]3(F)[C@@H](O)C[C@]2(C)[C@@]1(O)C(=O)CO` [dexamethasone], the “Signs of toxicity in BioMAP Systems” value in data set [1] is “no signs of toxicity”. As to `Oc1ccc(OCc2ccccc2)cc1` [Monobenzene], in data set [2], the “Total score for desired parameter modulation, Score (out of 45)” value (shortened to “Total score”) stood at 24. With `COc1cc2c(c(OC)c1OC)-c1ccc(O)c(=O)cc1C(N)CC2` (stereo not drawn) [Trimethylcolchicinic Acid], in data set [2], the “Total score” value stood at 29. Besides, the “Preferential effect on smooth muscle cell versus endothelial cell proliferation” value in data set [3] was “preferential effect on smooth muscle cells over endothelial cells”. With `CO[C@H]1C[C@@H]2CC[C@@H](C)[C@@](O)(O2)C(=O)C(=O)N2CCCC[C@H]2C(=O)O[C@H]([C@H](C)C[C@@H]2CC[C@@H](O)[C@H](OC)C2)CC(=O)[C@H](C)/C=C(\C)[C@@H](O)[C@@H](OC)C(=O)[C@H](C)C[C@H](C)/C=C/C=C/C=C/1C` [Rapamycin], in data set [2], the “Total score” value was 24 ± 1. Further, the “Signs of toxicity in BioMAP Systems” value in data set [1] was “no signs of toxicity”. As to `O=C1C(O)=C([C@H]2CC[C@H](c3ccc(Cl)cc3)CC2)C(=O)c2ccccc21` [Atovaquone], the “Total score” value in data set [2] turned out to be 22.

Consider `CC(C)N1CCN(c2ccc(OCC3COC(Cn4cncn4)(c4ccc(Cl)cc4Cl)O3)cc2)CC1` (stereo not drawn) [Terconazole], for which the “Total score” value in data set [2] was 22. In the case of Clofilium Tosylate, the “Total score” value in data set [2] came out at 22. Same read-out and setting: as for `Cl.Cl.OCCN1CCN(CC/C=C2/c3ccccc3Sc3ccc(C(F)(F)F)cc32)CC1` [Cis-(Z)-Flupentixol Dihydrochloride], the figure is 33. Same read-out and setting: as for `CCN(CC)Cc1cc(Nc2ccnc3cc(Cl)ccc23)ccc1O` [Amodiaquin Dihydrochloride Dihydrate], the figure is 23.

Turning to `C[C@]12CC[C@@H]3c4ccc(O)cc4CC[C@H]3[C@@H]1CC[C@@H]2O` [17beta-estradiol], in data set [2], the “Doses at which inactive in BioMAP Systems (lower than)” value is under 3.3 µM. The “Dose showing signs of cellular toxicity” value in data set [1] (human) turned out to be 10 µM.

As to `Cc1cc(C2CCCCC2)n(O)c(=O)c1` [Ciclopirox Ethanolamine], the “Total score” value in data set [2] is 20.

With `O=C(O)CCCc1ccc(N(CCCl)CCCl)cc1` [Chlorambucil], the “Total score” value in data set [2] worked out at 30. On the same count and under the same terms, as for `CCOC(=O)Oc1c(OC)cc(C(=O)O[C@@H]2C[C@@H]3CN4CCc5c([nH]c6cc(OC)ccc56)[C@H]4C[C@@H]3[C@H](C(=O)OC)[C@H]2OC)cc1OC` [Syrosingopine], the figure is 22.

Regarding `CC(=O)N(O)CCCCCNC(=O)CCC(=O)N(O)CCCCCNC(=O)CCC(=O)N(O)CCCCCN` [Deferoxamine Mesylate], in data set [2], the “Total score” value is given as 26. On the same count and under the same terms, as for `COc1cc(NC(C)CCCN)c2ncccc2c1` (stereo not drawn) [Primaquine Diphosphate], the figure is 27; as for `COC(=O)C1=C(C)NC(C)=C(C(=O)OC)C1c1ccccc1[N+](=O)[O-]` [Nifedipine], 28; as for `O=C1C=C2C=C[C@@H]3C[C@@]2(O1)[C@H]1CCCCN31` [Securinine], 28. On the same count and under the same terms, under `Nc1nc2nn[nH]c2c(=O)[nH]1` [Drug 8-Azaguanine, 8-Azaguanine] stands 28. On to `C=C(C)[C@@H]1CC[C@]2(CO)CC[C@]3(C)[C@H](CC[C@@H]4[C@@]5(C)CC[C@H](O)C(C)(C)[C@@H]5CC[C@]43C)[C@@H]12` [Betulin], for which the “Total score” value in data set [2] is recorded as 31.

For the molecule `CC(=O)O[C@H]1C(=O)[C@@]2(C)[C@H]([C@H](OC(=O)c3ccccc3)[C@]3(O)C[C@H](OC(=O)[C@H](O)[C@@H](NC(=O)c4ccccc4)c4ccccc4)C(C)=C1C3(C)C)[C@]1(OC(C)=O)CO[C@@H]1C[C@@H]2O` [Paclitaxel], the “Total score” value in data set [2] came to 26 ± 2. Besides, the “Activity over tested dose range in BioMAP Systems” value in data set [2] (tested doses) is recorded as “active over the entire dose range”. In data set [1], the “Signs of toxicity in BioMAP Systems” value was “no signs of toxicity”. With `O=c1ccc2cc(O)c(O)cc2o1` [Esculetin], the “Total score” value in data set [2] was 25. In addition, the “Effect on neointimal hyperplasia after balloon vascular injury” value in data set [4] is reported as “inhibit neointimal hyperplasia”. For `Cc1c2oc3c(C)ccc(C(=O)N[C@@H]4C(=O)N[C@H](C(C)C)C(=O)N5CCC[C@H]5C(=O)N(C)CC(=O)N(C)[C@@H](C(C)C)C(=O)O[C@@H]4C)c3nc-2c(C(=O)N[C@@H]2C(=O)N[C@H](C(C)C)C(=O)N3CCC[C@H]3C(=O)N(C)CC(=O)N(C)[C@@H](C(C)C)C(=O)O[C@@H]2C)c(N)c1=O` [Actinomycin D] (I: T[dV]P[Sar][NMeV] / II: T[dV]P[Sar][NMeV]; ester I:1-I:C, II:1-II:C; linker I:N-II:N via Actinocin(9to1)), the “Doses at which inactive in BioMAP Systems (lower than)” value in data set [2] was under 0.0005 µM. The “Dose showing signs of cellular toxicity” value in data set [1] (BioMAP Systems) amounted to 0.004572 µM. As to `COc1cc2nc(N3CCN(C(=O)C4COc5ccccc5O4)CC3)nc(N)c2cc1OC` (stereo not drawn) [Doxazosin Mesylate], in data set [2], the “Total score” value is recorded as 22.
